# Reference: patent US20120283274A1, “CRYSTALLINE FORMS OF SUBSTITUTED PYRAZOLOPYRIMIDINES” (priority 2009, published 2012)
# Legend:
# Format in all cases: physicochemical
# [1] = DVS (dynamic vapour sorption), hygroscopicity; details: for hygroscopicity: DVS 50%->0%->95%->50% r.h.; for post-DVS Raman spectrum, change in form: after DVS cycle; for mass change Δm: change of relative humidity (r.h.) from 50 to 85%
# Description: DVS (50%->0%->95%->50% r.h.) was performed on the samples as mentioned above. The results are summarized in the following:
# Surface Measurement Systems Ltd. DVS-1 water vapour sorption analyzer and Projekt Messtechnik SPS 11-100n multi-sample water vapor sorption analyzer were used.
# The sample was allowed to equilibrate at 50% relative humidity (r.h.) before starting e.g. the following predefined humidity program: • 2 h at 0% r.h. • 0 to 95% r.h. (5%/h) • 3 h at 95% r.h. • 95 to 0% (10%/h) • 2 h at 0% r.h.
# [2] = Determination of dissolution rate of a compressed tablet (UV-absorption spectroscopy); set-up: key to Dissolution rate: —: In case that no data given in the Table 3 it was found, that the dissolution rate did not change significantly in moving from the second to the third and fourth sectors; details: for Dissolution rate: 0.15 M aqueous potassium chloride, 23° C., compressed tablet
# Text: Only one face of the tablet was exposed to the dissolution medium, which contained an acetate/phosphate buffer system to minimise perturbation of the experimental pH from dissolution of the drug. Stirring of the solution was continuous and at a constant rate. The absorption data was converted to absolute sample weights using previously determined, pH-dependent, molar extinction coefficients. An appropriate wavelength range was chosen to ensure that spectroscopic data with an absorption value of <1.3 was analyzed, avoiding erroneous dissolution results due to saturation of the […]. Dissolution rates were calculated from the fit of a first-order exponential equation to the experimental data obtained.
# The dissolution rates listed in the Table 3 were determined at pH 2.0, 3.9, 5.4, and 7.3 (+/−0.1), at a temperature of 23° C. (+/−1° C.).
# [3] = Determination of aqueous solubility (HPLC)
# Description: The samples were shaken with a temperature controlled “Thermomixer comfort” from Eppendorf at 800 rpm (24 hours, 23° C.). The resulting suspensions were filtered with Millipore Centrifugal Filter Device UFC30VVNB (0.1) and Centrifuge Hettich EBA 12 R (10.000 g).
# The pH of the filtrate was measured, and the concentration of the free base was determined by HPLC (method is described in Example 7).
# Suspension of co-crystal in water was agitated with a temperature controlled. Thermomixer comfort” from Eppendorf with 800 rpm (24 hours, 23° C.). The suspension was filtered with Millipore Centrifugal Filter Device UFC30VVNB (0.1μ) and Centrifuge Hettich EBA 12 R (10,000 g).
hygroscopicity [1],"post-DVS Raman spectrum, change in form [1]",mass change Δm [1],Dissolution rate ([2]; pH 2.0),Dissolution rate ([2]; pH 3.9),Dissolution rate ([2]; pH 5.4),Dissolution rate ([2]; pH 7.3),"total water content ([1]; humidity increased to 95% r.h., equilibrium reached)","solubility at 24 h ([3]; thermodynamic from solid, water, 24 hours, 23° C., at pH 8.5, near the detection limit)",solubility in water or aqueous solvents ([3]; water or aqueous solvents),enhancement of the dissolution rate compared to the free drug ([2]; at pH 2),Compound
,,,0.58 µg/min,0.22 µg/min,—,—,,< 10 µg/mL,,,"C[C@@H]1c2ccccc2CCN1C(=O)c1cc2ncc(Br)cn2n1 [Free drug compound, (6-bromo-pyrazolo[1,5-a]pyrimidin-2-yl)-(1(R)-methyl-3,4-dihydro-1H-isoquinolin-2-yl)-methanone]"
,,,,,,,,,below 10 μg/mL,,CC1c2ccccc2CCN1C(=O)c1cc2ncc(Br)cn2n1 (centres unmarked) [compound A]

# Further lines, the compound ahead of its results:
Compound,hygroscopicity [1],"post-DVS Raman spectrum, change in form [1]",mass change Δm [1],Dissolution rate ([2]; pH 2.0),Dissolution rate ([2]; pH 3.9),Dissolution rate ([2]; pH 5.4),Dissolution rate ([2]; pH 7.3),"total water content ([1]; humidity increased to 95% r.h., equilibrium reached)","solubility at 24 h ([3]; thermodynamic from solid, water, 24 hours, 23° C., at pH 8.5, near the detection limit)",solubility in water or aqueous solvents ([3]; water or aqueous solvents),enhancement of the dissolution rate compared to the free drug ([2]; at pH 2)
"C[C@@H]1c2ccccc2CCN1C(=O)c1cc2ncc(Br)cn2n1.O=C(O)c1cc(O)ccc1O [Example 3c, co-crystal of (6-bromo-pyrazolo[1,5-a]pyrimidin-2-yl)-(1(R)-methyl-3,4-dihydro-1H-isoquinolin-2-yl)-methanone and gentisic acid]",not hygroscopic,does not indicate any change in form,about 0.1%,2.04 µg/min,1.06 µg/min,—,—,,,,
"C[C@@H]1c2ccccc2CCN1C(=O)c1cc2ncc(Br)cn2n1.O=C(O)c1ccc2ccccc2c1O [Example 4c, co-crystal of (6-bromo-pyrazolo[1,5-a]pyrimidin-2-yl)-(1(R)-methyl-3,4-dihydro-1H-isoquinolin-2-yl)-methanone and xinafoic acid]",slightly hygroscopic,does not indicate any change in form,about 1%,0.46 µg/min,0.68 µg/min,1.26 µg/min,1.44 µg/min,approximately 2 wt.-%,,,
"co-crystal of (6-bromo-pyrazolo[1,5-a]pyrimidin-2-yl)-(1(R)-methyl-3,4-dihydro-1H-isoquinolin-2-yl)-methanone and succinic acid [Example 2a]",not hygroscopic,does not indicate any change in form,about 0.1%,2.06 µg/min,1.58 µg/min,—,—,,,,3 fold
